Measured values taken from US20160106099A1, “MICROBICIDAL COMPOSITION COMPRISING ISOTHIAZOLONE AND AN AMINE OXIDE” (THOR GMBH, priority 2013, published 2016).

Experiments:
[1] = tested on: Candida albicans (ATCC 10231); experiment: Minimum inhibitory concentration and synergy index according to Kull et al.; type: cell-based; settings: for Synergistic Index Qa/QA + Qb/QB: MIT + amine oxide
Experimental: (§1) The synergism of a combination of 2-Methyl-isothiazolinone (MIT) with N,N-Dimethyldodecan-1-amine oxide was tested. Test organisms used was the mould Aspergillus niger (DSM 12623). For the purpose of the test, mixtures containing different concentrations of MIT and N,N-Dimethyldodecan-1-amine oxide were prepared and tested for their action on Aspergillus niger. […] The MIC is the concentration at which there is no formation of colonies or mycelia on the surface of the agar (Aspergillus niger).
(§2) The synergism that occurred was presented numerically by calculation of the synergy index (SI). This calculation was made using the common method of F. C. Kull et al., Applied Microbiology, vol. 9 (1961), p. 538. SI is calculated there in accordance with the following formula:
(§3) Synergy index SI=Qa/QA+Qb/QB
(§4) Qa=concentration of MIT in the mixture of N,N-Dimethyldodecan-1-amine oxide+MIT QA=concentration of MIT as sole biocide Qb=concentration of N,N-Dimethyldodecan-1-amine oxide in the biocide mixture of N,N-Dimethyldodecan-1-amine oxide+MIT QB=concentration of N,N-Dimethyldodecan-1-amine oxide as sole biocide
(§5) If the synergy index has a value of more than 1, this means that there is an antagonism. If the synergy index adopts a value of 1, this means that the action of the two biocides is additive. If the synergy index takes on a value of below 1, this means that there is synergism of the two biocides.
Determination of the Synergy Index According to Kull et al. of N,N-Dimethyldodecan-1-amine oxide+MIT in Respect of Candida albicans (ATCC 10231)
The cell density of Candida albicans (ATCC 10231) was 10^6/ml, incubation time 72 hours, temperature 25° C.
Determination of the Synergy Index According to Kull et al. of N,N-Dimethyldodecan-1-amine oxide+MIT+2-n-octyl-4-isothiazolin-3-one (OIT) in Respect of Candida albicans (ATCC 10231)

[2] = tested on: Aspergillus niger (DSM 12623); experiment: Minimum inhibitory concentration and synergy index (Kull) in Sabouraud glucose agar, visual growth reading; type: cell-based; settings: 72 hours at 25° C.; for Synergistic Index Qa/QA + Qb/QB: below 1 = synergism, 1 = additive, above 1 = antagonism
Experimental: as §1, §2, §3
In the application of this formula to the MIT+N,N-Dimethyldodecan-1-amine oxide biocide system tested here, the variables in the formula have the following definition:
as §4, §5
Determination of the Synergy Index of N,N-Dimethyldodecan-1-amine oxide+MIT in Respect of Aspergillus niger for an Incubation Time of 72 Hours at 25° C.

[3] = Table 2, sum of MIT and amine oxide at MIC

Row | SMILES | Synergistic Index Qa/QA + Qb/QB ([1]; Table 2, 72 hours, 25° C.) | MHK Qb (Amine oxide) ([1]; Table 2, amine oxide concentration at MIC, alone or in mixture with MIT, 72 hours, 25° C.) | Qb/QB ([1]; Table 2, amine oxide in mixture / amine oxide as sole biocide) | Total [1, 3] | Synergistic Index Qa/QA + Qb/QB [2] | MHK Qb (Amine oxide) ([2]; amine oxide concentration at MIC, alone (MIC) or in mixture with MIT) | Total ([1]; Table 3) | Synergistic Index ([1]; Table 3, MIT + amine oxide + OIT) | Qb/QB ([1]; Table 3, OIT component) | MHK Qb (OIT) ([1]; Table 3, OIT concentration at MIC, alone or with MIT + amine oxide) | MHK Qa (MIT) ([1]; Table 2, MIT concentration at MIC, alone or in mixture with amine oxide, 10^6/ml, 72 hours, 25° C.) | Qa/QA ([1]; Table 2, MIT in mixture / MIT as sole biocide) | MHK Qa (MIT) ([2]; MIT concentration at MIC, alone (MIC) or in mixture with amine oxide, 3,7·10^6 spores per ml)
1 | CCCCCCCCCCCC[N+](C)(C)[O-] [Amine oxide, N,N-Dimethyldodecan-1-amine oxide] | 1.00 | 50 ppm | 1.00 | 50 ppm | 1.00 | 231 (MIC) ppm |  |  |  |  |  |  | 
2 | CCCCCCCCn1sccc1=O [OIT, 2-n-octyl-4-isothiazolin-3-one] |  |  |  |  |  |  | 3 ppm | 1.00 | 1.00 | 3 ppm |  |  | 
3 | Cn1sccc1=O [MIT, 2-methylisothiazolin-3-one] | 1.00 |  |  | 125 ppm | 1.00 |  |  |  |  |  | 125 ppm | 1.00 | 1000 (MIC) ppm
